Drawing on PubChem BioAssay (NCI), this text covers GI50 and TGI for six compounds.

Experiment in all cases: DTP human tumour cell line panel, 48 h
The test system of assay [1] is OVCAR-3 ovarian.
Assay [2] relates to SF-295 CNS.
Assay [3] has as its system SNB-75 CNS.
The subject of assay [4] is A549 NSCLC.
The subject of assay [5] is OVCAR-4 ovarian.
In assay [6] the test system is COLO 205 colon.
For assay [7], the system named is IGROV1 ovarian.
Assay [8] relates to A498 renal.

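Cultured in 96-well plates, cells were exposed to test compound for 48 hours across five concentrations. GI50: concentration for 50% inhibition of growth. TGI: concentration producing complete growth inhibition.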

On to `COc1ccc(OC)c(C2=C(c3cn(C)c4ccccc34)C(=O)NC2=O)c1`, for which the GI50 in assay [1] was above 25 µM; in assay [2] it was above 22.7 µM; in assay [3], above 25 µM; in assay [4], above 25 µM; in assay [5] it was above 25 µM; in assay [6] it was above 25 µM. For the same compound, the GI50 in assay [7] was above 25 µM; in assay [8], above 15.6 µM. Also, the TGI in assay [1], in assay [2], in assay [3], in assay [4], in assay [5] and in assay [6] was above 25 µM each time. The TGI in assay [7] and in assay [8] was above 25 µM each time.
`Nc1c(C(=O)Nc2cccc(Cl)c2)sc2nc3c(cc12)C(O)CCC3` (stereo unspecified): the GI50 was 0.311 µM in assay [1]; 0.314 µM in assay [2]; 0.373 µM in assay [3]; 0.465 µM in assay [4]; 5.51 µM in assay [5]; 0.348 µM in assay [6]. The figures for the GI50 in assay [7] and in assay [8] were 0.992 µM and 0.182 µM, respectively. Besides, the TGI in assay [1] was determined as 1.22 µM; in assay [2] it was 16.3 µM; in assay [3] it was 21.6 µM; in assay [4], 17.4 µM; in assay [5], 40.2 µM; in assay [6] it was 3.53 µM. In addition, the figures for the TGI in assay [7] and in assay [8] were 40.7 µM and 13.6 µM, respectively.
Regarding `CCN1CCN(Cc2ccc(Nc3ncc(F)c(-c4cc(F)c5nc(C)n(C(C)C)c5c4)n3)nc2)CC1`, the GI50 in assay [1] was 6.34 µM; in assay [2], 0.0882 µM; in assay [3], 0.094 µM; in assay [4] it was 0.411 µM; in assay [5], 6.49 µM; in assay [6] it was 0.218 µM. The values for the GI50 in assay [7] and in assay [8] were 2.03 µM and 1.05 µM, respectively. Further, the total growth inhibition concentration (TGI) in assay [1] was 13.5 µM; in assay [2], 9.08 µM; in assay [3] it was 6.68 µM; in assay [4], 11.9 µM; in assay [5], 16.2 µM; in assay [6], 6.26 µM. For the same compound, the TGI in assay [7] amounted to 13.1 µM; in assay [8], 50 µM.
On to `COc1ccccc1CNCCCN1C(=O)c2ccc3c4c(ccc(c24)C1=O)C(=O)N(CCCNCCCCNCCCN)C3=O`, for which the GI50 was 0.261 µM in assay [1]; 1.06 µM in assay [2]; 0.609 µM in assay [3]; 0.581 µM in assay [4]; 0.167 µM in assay [5]; 0.168 µM in assay [6]. The GI50 was 0.359 µM in assay [7] and 1.34 µM in assay [8]. The TGI worked out at 0.699 µM in assay [1]; 6.79 µM in assay [2]; 1.86 µM in assay [3]; 2.72 µM in assay [4]; 0.319 µM in assay [5]; 0.317 µM in assay [6]. Moreover, the TGI in assay [7] came out at 11.1 µM; in assay [8], 3.14 µM.
In the case of `Cc1nc2ccc(-n3ncc(C(=O)c4cc5ccccc5[nH]4)c3N)cc2[nH]1`, the GI50 was 11.2 µM in assay [1]; 4.87 µM in assay [2]; 0.945 µM in assay [3]; 8.46 µM in assay [4]; 16 µM in assay [5]; 4.77 µM in assay [6]. In addition, the GI50 in assay [7] is 9.74 µM; in assay [8] it was 0.496 µM. Further, the TGI in assay [1] was above 100 µM; in assay [2], 44.8 µM; in assay [3] it was above 100 µM; in assay [4], above 100 µM; in assay [5], above 100 µM; in assay [6], 29.1 µM. Besides, the results for the TGI in assay [7] and in assay [8] were above 100 µM and 54.3 µM, respectively.
Consider `COc1cc(/C=C2\CCC/C(=C\c3cc(CN4CCCC4)c(O)c(OC)c3)C2=O)cc(CN2CCCC2)c1O`, for which the GI50 was 3.89 µM in assay [1]; 9.89 µM in assay [2]; 5.02 µM in assay [3]; 3.5 µM in assay [4]; 5.93 µM in assay [5]; 1.19 µM in assay [6]. In addition, the GI50 was 3.24 µM in assay [7] and 2.94 µM in assay [8]. In addition, the TGI is 13.8 µM in assay [1]; 25.2 µM in assay [2]; 47.9 µM in assay [3]; 12.8 µM in assay [4]; above 100 µM in assay [5]; 2.76 µM in assay [6]. Also, the TGI came to 13.3 µM in assay [7] and 8.54 µM in assay [8].

As a reminder, the GI50 is the concentration that inhibits growth by half. As usually defined, the TGI is the concentration giving total growth inhibition. The low end stands for greater sensitivity of the cells, the high end for lower sensitivity of the cells.
